According to ChEMBL document CHEMBL4138077, “Rational design, synthesis and biological screening of triazine-triazolopyrimidine hybrids as multitarget anti-Alzheimer agents” (Eur J Med Chem, 2017):
The source made the active and inactive calls. The calls are words filed in the database; no cut-off is given here.

Key:
[1] = biological target: T1, Amyloid-beta precursor protein (Homo sapiens, UniProt P05067); assay: Inhibition of HFIP-pretreated amyloid beta (1 to 42 residues) (unknown origin) self aggregation at 25 uM after 24 hrs by ThT-based fluorometric method
Cholinesterase = Cholinesterase (Equus caballus, UniProt P81908); assay: Inhibition of equine serum BuChE using butyrylthiocholine iodide as substrate preincubated for 5 mins followed by substrate addition measured after 2 mins by spectroscopy based Ellman's method
Acetylcholinesterase [2] = biological target: T2, Acetylcholinesterase (Electrophorus electricus, UniProt O42275); assay: Inhibition of electric eel AChE using acetylthiocholine iodide as substrate preincubated for 5 mins followed by substrate addition measured after 2 mins by spectroscopy based Ellman's method
[3] = biological target: T1, Amyloid-beta precursor protein; assay: Binding affinity to amyloid beta (1 to 42) (unknown origin) assessed as decrease in beta sheet and random structure conformation at 10 uM after 12 hrs by CD spectroscopic method
[4] = biological target: T1, Amyloid-beta precursor protein; assay: Binding affinity to amyloid beta (1 to 42) (unknown origin) assessed as increase in alpha helix conformation at 10 uM after 12 hrs by CD spectroscopic method
[5] = biological target: T1, Amyloid-beta precursor protein; assay: Inhibition of amyloid beta (1 to 42) (unknown origin) fibril formation at 25 uM after 24 hrs by uranyl acetate staining based transmission electron microscopic method
[6] = biological target: T1, Amyloid-beta precursor protein
Description: Inhibition of HFIP-pretreated amyloid beta (1 to 42 residues) (unknown origin) self aggregation after 24 hrs by ThT-based fluorometric method

[7] = Metal chelating activity of the compound assessed as mole fraction of compound causing 1:1 stoichiometry for formation of Cu2+-compound complex at 50 uM after 30 mins by UV-vis spectrophotometric method
[8] = Metal chelating activity assessed as inhibition of Cu2+-induced amyloid beta (1 to 42 residues) aggregation by measuring reduction in amyloid fibrils at 50 uM after 24 hrs by uranyl acetate staining based transmission electron microscopic analysis
[9] = Metal chelating activity assessed as inhibition of Cu2+-induced amyloid beta (1 to 42 residues) aggregation at 50 uM after 24 hrs by thioflavin-T fluorescence assay
Acetylcholinesterase [10] = biological target: T2, Acetylcholinesterase; assay: Mixed-type inhibition of electric eel AChE using varying levels of acetylthiocholine iodide as substrate preincubated for 15 mins followed by substrate addition by Lineweaver-Burk plot analysis
[11] = Metal chelating activity of the compound assessed as formation of Fe2+-compound complex by measuring change in red shift in maximum absorption at 50 uM after 30 mins by UV-vis spectrophotometric method (reference value: […] nanometer)
[12] = Metal chelating activity of the compound assessed as formation of Zn2+-compound complex by measuring change in red shift in maximum absorption at 50 uM after 30 mins by UV-vis spectrophotometric method (reference value: […] nanometer)
[13] = (§1) Metal chelating activity of the compound assessed as formation of Cu2+-compound complex by measuring change in red shift in maximum absorption at 50 uM after 30 mins by UV-vis spectrophotometric method (reference value: […] nanometer)
[14] = as §1; remark: listed apart in the source

T1 sequence (P05067 whole entry, the tested form may be a part): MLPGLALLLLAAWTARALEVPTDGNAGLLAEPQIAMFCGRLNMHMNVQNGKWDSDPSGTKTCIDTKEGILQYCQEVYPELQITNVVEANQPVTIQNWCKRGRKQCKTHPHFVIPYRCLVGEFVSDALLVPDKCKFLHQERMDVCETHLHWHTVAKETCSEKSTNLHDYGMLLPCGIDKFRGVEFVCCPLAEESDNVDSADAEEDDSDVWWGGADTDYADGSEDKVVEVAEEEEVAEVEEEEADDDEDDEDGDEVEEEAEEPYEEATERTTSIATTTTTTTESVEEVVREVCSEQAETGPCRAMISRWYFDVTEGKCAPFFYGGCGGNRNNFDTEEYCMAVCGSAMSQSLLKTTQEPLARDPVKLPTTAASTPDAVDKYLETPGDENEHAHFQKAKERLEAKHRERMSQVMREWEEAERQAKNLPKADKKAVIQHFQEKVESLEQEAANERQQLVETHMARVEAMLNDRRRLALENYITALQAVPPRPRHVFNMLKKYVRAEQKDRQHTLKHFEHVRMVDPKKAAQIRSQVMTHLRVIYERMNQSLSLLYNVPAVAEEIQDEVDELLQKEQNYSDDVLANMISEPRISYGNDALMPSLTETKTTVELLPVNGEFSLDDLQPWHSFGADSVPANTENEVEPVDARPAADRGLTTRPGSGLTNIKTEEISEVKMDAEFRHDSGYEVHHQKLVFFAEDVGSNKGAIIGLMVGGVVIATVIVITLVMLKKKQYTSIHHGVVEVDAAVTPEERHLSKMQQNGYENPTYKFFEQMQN
Sequence of Cholinesterase (P81908 whole entry): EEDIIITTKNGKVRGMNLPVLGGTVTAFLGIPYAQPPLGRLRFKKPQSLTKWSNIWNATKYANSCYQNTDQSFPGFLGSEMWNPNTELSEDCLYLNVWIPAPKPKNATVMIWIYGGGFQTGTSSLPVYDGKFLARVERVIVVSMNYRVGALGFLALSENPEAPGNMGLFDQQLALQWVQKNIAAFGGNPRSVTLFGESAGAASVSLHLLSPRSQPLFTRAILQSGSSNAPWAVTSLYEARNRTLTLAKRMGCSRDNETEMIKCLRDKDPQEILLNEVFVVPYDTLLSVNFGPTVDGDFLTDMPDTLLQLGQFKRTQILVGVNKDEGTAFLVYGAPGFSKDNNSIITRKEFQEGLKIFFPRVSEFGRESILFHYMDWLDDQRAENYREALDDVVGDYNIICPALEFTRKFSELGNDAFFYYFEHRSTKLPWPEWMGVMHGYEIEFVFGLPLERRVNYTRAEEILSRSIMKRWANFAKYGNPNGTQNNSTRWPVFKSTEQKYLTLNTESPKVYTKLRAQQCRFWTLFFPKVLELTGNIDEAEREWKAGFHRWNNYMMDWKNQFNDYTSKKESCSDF
T2 sequence (O42275 whole entry): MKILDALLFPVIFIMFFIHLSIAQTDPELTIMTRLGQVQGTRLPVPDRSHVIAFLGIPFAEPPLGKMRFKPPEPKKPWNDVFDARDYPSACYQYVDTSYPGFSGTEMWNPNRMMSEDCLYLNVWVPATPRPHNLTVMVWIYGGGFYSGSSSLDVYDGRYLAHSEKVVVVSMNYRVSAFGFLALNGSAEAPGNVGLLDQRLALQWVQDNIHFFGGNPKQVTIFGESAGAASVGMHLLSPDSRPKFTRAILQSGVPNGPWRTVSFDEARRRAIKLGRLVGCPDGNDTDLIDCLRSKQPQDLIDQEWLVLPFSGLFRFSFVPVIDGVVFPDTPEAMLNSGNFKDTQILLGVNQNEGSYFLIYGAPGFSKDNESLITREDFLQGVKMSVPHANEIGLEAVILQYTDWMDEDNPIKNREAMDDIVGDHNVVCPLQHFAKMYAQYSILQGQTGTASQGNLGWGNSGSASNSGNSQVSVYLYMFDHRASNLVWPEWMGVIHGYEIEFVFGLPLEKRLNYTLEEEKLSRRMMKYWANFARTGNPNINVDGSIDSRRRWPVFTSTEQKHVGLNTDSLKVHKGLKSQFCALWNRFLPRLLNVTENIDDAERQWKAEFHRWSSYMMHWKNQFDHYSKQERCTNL

SMILES | inhibition [1] | IC50 (Cholinesterase) | IC50 (Acetylcholinesterase [2]) | IC50 [6] | other results
Cc1ccc(Nc2nc(Nc3cccc(C(F)(F)F)c3)nc(N3CCN(c4cc(C)nc5ncnn45)CC3)n2)cc1 | 22.4% | 1750 nM | 558 nM | – | –
COc1ccc(Nc2nc(Cl)nc(N3CCN(c4cc(C)nc5ncnn45)CC3)n2)cc1 | 68.5% | 1520 nM | 92 nM | 11500 nM | Activity [3]: Active; Activity [4]: Active; inhibition [5]: Active; Activity (mole fraction) [7]: 0.96; inhibition [8]: Active; inhibition [9]: 66.6%; Ki (Acetylcholinesterase [10]): 102 nM; Activity [11]: 234 nm; Activity [12]: 236 nm
COc1cc(/C=C/C(=O)CC(=O)/C=C/c2ccc(O)c(OC)c2)ccc1O | – | – | – | – | inhibition [5]: Active; inhibition [9]: 60.3%
Fc1ccc(Nc2nc(Cl)nc(Nc3cccc(C(F)(F)F)c3)n2)c(F)c1 | 65.2% | 4330 nM | 496 nM | 17900 nM | –
Cc1cc(N2CCN(c3nc(Cl)nc(Nc4ccc(F)cc4)n3)CC2)n2ncnc2n1 | 64.5% | 930 nM | 115 nM | 15900 nM | –
Cc1ccc(Nc2nc(Cl)nc(Nc3ccc(F)c(Cl)c3)n2)cc1 | 62.5% | 2770 nM | 917 nM | 18000 nM | –
Fc1ccc(Nc2nc(Cl)nc(Nc3cccc(C(F)(F)F)c3)n2)cc1 | 63% | 2450 nM | 526 nM | 18600 nM | –
Cc1cc(N2CCN(c3nc(Nc4cccc(C(F)(F)F)c4)nc(NC4CC4)n3)CC2)n2ncnc2n1 | 44.3% | 1900 nM | 903 nM | – | –
Cc1ccc(Nc2nc(Nc3ccc(F)c(Cl)c3)nc(N3CCN(c4cc(C)nc5ncnn45)CC3)n2)cc1 | 49.3% | 3780 nM | 859 nM | 25000 nM | –
Fc1ccc(Nc2nc(Cl)nc(Nc3cccc(C(F)(F)F)c3)n2)cc1Cl | 46.2% | 3980 nM | 432 nM | – | –
COc1ccc(Nc2nc(Cl)nc(Nc3cccc(C(F)(F)F)c3)n2)cc1 | 67.2% | 2960 nM | 591 nM | 17600 nM | –
COc1ccc(Nc2nc(Cl)nc(Nc3ccc(F)c(Cl)c3)n2)cc1 | 60.7% | 1640 nM | 705 nM | 23800 nM | –
Cc1cc(N2CCN(c3nc(Cl)nc(Nc4ccccc4F)n3)CC2)n2ncnc2n1 | 65.8% | 2230 nM | 286 nM | 13400 nM | –
Cc1ccc(Nc2nc(Cl)nc(Nc3cccc(C(F)(F)F)c3)n2)cc1 | 64.8% | 2090 nM | 672 nM | 20700 nM | –
Cc1cc(N2CCN(c3nc(Nc4cccc(C(F)(F)F)c4)nc(Nc4ccc(F)c(Cl)c4)n3)CC2)n2ncnc2n1 | 61.7% | 2610 nM | 388 nM | 16300 nM | –
FC(F)(F)c1cccc(Nc2nc(NC3CC3)nc(N3CCNCC3)n2)c1 | 58.8% | 3650 nM | 1250 nM | 23500 nM | –
Cc1cc(N2CCN(c3nc(Nc4ccc(F)cc4)nc(Nc4cccc(C(F)(F)F)c4)n3)CC2)n2ncnc2n1 | 54.7% | 2490 nM | 724 nM | 18300 nM | –
Cc1cc(N2CCN(c3nc(Cl)nc(Nc4cccc(C(F)(F)F)c4)n3)CC2)n2ncnc2n1 | 75.3% | 1880 nM | 65 nM | 10400 nM | Activity [3]: Active; Activity [4]: Active; Activity [13]: 238 nm; inhibition [5]: Active; Activity (mole fraction) [7]: > 0.9; inhibition [8]: Active; inhibition [9]: 69.7%; Ki (Acetylcholinesterase [10]): 69 nM; Activity [11]: Active; Activity [12]: Active; Activity [14]: 214 nm
